US20190160093A1, “THERAPEUTIC AGENT FOR DISEASE ACCOMPANIED BY EPILEPTIC WAVES” (TAIYO NIPPON SANSO CORPORATION, priority 2010, published 2019)
Like-named read-outs stand apart in the source and are kept apart here. Values belong to the molecule of their own block, whether it stands above or below them.

How the values were obtained:
[1] = cited from earlier work
[2] = tested on: epileptic model rat (Kyo811 rat); assay: Electroencephalogram and seizure duration of Kyo811 rats with febrile seizures induced by thermal load; format: in vivo; conditions: febrile seizures by warm bath at 45° C., carbon dioxide 10% (v/v) vs normal air
Text: In epilepsy, about 80% of patients of intractable Dravet syndrome (formerly, referred to as Severe Myoclonic Epilepsy in Infancy: SMEI), and about 5-10% of patients of benign generalized epilepsy with febrile seizure plus: GEFS+) have missense mutations in a voltage-dependent sodium channel a subunit type 1 (SCN1A) gene. Therefore, it is considered that the mutations in the SCN1A gene are involved in development of febrile seizures (Reference Literatures 3 and 4). In the present Reference Example, using the Kyo811 rats having a mutation in the Scn1a gene as a genetic factor, suppressive effect of seizure by carbon dioxide was examined. This rat is a febrile seizure model rat which induces febrile seizures by a thermal load, and a GEFS+ model rat.
A Kyo811 rat was prepared as a rat with a mutation in the voltage-dependent sodium channel Scn1a gene by the following technology. […]
After a one-week recovery period, the rats were put into a warm bath at 45° C. for about 3-4 minutes to induce febrile seizures, and electroencephalograms were measured.
Immediately after the seizure was induced, the rats were placed in the multi-gas concentration control apparatus adjusted to the concentration of carbon dioxide of 10% (v/v) or the concentration of the normal air, and the situation of the seizure was observed while electroencephalograms were measured continuously. […]

[3] = Blood pH and blood gas of GRY rats placed in gas containing carbon dioxide or oxygen; format: in vivo, rat
Method: In order to control a concentration of carbon dioxide, multi-gas incubator (MCO-5M; Sanyo Electric Co., Ltd.) was used as a multi-gas concentration control apparatus to adjust the concentration of carbon dioxide in the incubator. A concentration of oxygen was also adjusted for comparison. Main components of the normal dry air are 0.032% (v/v) of carbon dioxide, 20.946% (v/v) of oxygen, and 78.084% (v/v) of nitrogen. Therefore, using the above-described multi-gas concentration control apparatus, the concentration of carbon dioxide was set to 5% (v/v), 7% (v/v), or 10% (v/v), or the concentration of oxygen was set to 17% (v/v). When the concentration of carbon dioxide was adjusted, carbon dioxide gas supplied from a carbon dioxide gas bottle connected to the apparatus was diluted with the air outside. Therefore, carbon dioxide=10% (v/v), oxygen=about 18.85% (v/v), and nitrogen=about 70.28% (v/v). When the concentration of oxygen was set to 17% (v/v), similarly, the concentration was adjusted using nitrogen gas supplied from a nitrogen gas bottle connected to the apparatus. Therefore, carbon dioxide=0.026% (v/v), oxygen=about 17% (v/v), and nitrogen=about 82.974% (v/v). It was confirmed using a gas analyzer AGA-2008 (Astec Co. Ltd.) that each concentration in the incubator was correct under the set conditions.
The surgery of embedding an electrode for measurement of electroencephalograms was performed to eight male GRY rats (9 weeks old). After a one-week recovery period, the GRY rats were placed for one hour in the multi-gas concentration control apparatus adjusted to a concentration of carbon dioxide of 5% (v/v), 7% (v/v), or 10% (v/v), or a concentration of oxygen of 17% (v/v).
Blood samples were collected from the tail vein of the rats placed in the multi-gas concentration control apparatus, and the blood pH and the blood concentration of carbon dioxide were measured using an i-STAT analyzer (Fuso Pharmaceutical Industries, Ltd.) as a blood gas analyzer.
Carbon dioxide or oxygen was administered to rats by placing the rats in the multi-gas concentration control apparatus adjusted to a concentration of carbon dioxide of 10% (v/v) or a concentration of oxygen of 17% (v/v) for 15 minutes, 30 minutes, 45 minutes, or 60 minutes (5-6 rats for each). Rats placed in the multi-gas concentration control apparatus adjusted to a concentration of the normal air were used as a control.

[4] = tested on: epileptic model rat (GRY rat); assay: Electroencephalogram spike index of epileptic model rat (GRY rat); format: in vivo; conditions: GRY rats
Text: In the present Example, a GRY rat (groggy rat, Cacnala) was used as an epileptic model rat. A GRY rat constantly develops an epileptic seizure in normal conditions, and therefore is an extremely excellent system to evaluate a seizure by subjecting the GRY rat to a treatment. The GRY rat has a mutation in an al subunit of a P/Q-type voltage-dependent calcium channel Cav2.1 which encodes Cacnala gene, and is an epileptic model rat which mainly develops ataxia and absence seizure. The GRY rat takes a mode of autosomal recessive inheritance. The 752nd nucleotide “T” of the Cacnala gene has mutated to “A”. As a result, a codon “ATG” to specify methionine which is the 251st amino acid has mutated to a codon “AAG” to specify lysine (M251K). It has been reported that this mutation is located at extracellular p-loop forming a pore of a calcium channel domain 1 and that this mutation (M251K) results in abnormality of a function of the voltage-dependent calcium ion channel Cav2.1 of the rat (Reference Literatures 1 and 2). The GRY rats with this mutation show extension abnormalities of hind limbs, walking abnormalities, and ataxia, and a seizure which is accompanied with spike and wave discharges of 7-8 Hz on the electroencephalograms from 6-8 weeks of age. The present model rats were dispensed from Institute of Laboratory Animals, Graduate School of Medicine, Kyoto University.
Male GRY rats were anesthetized by administering 35 mg/kg of pentobarbital sodium (Nembutal, Sumitomo Dainippon Pharma Co. Ltd.) intraperitoneally, and were fixed to a brain stereotaxic fixing apparatus (SR-5M, NARISHIGE Group). The head was shaved, the skin was incised along the median line, and the skull was exposed. A small hole was opened on the frontal lobe cortex and the occipital lobe cortex on both sides using a dental drill (FALCON, Morita Corporation). A stainless steel screw electrode (FUKUOKA RASHI) having a diameter of 0.9 mm and a length of 1.7 mm and connected a stainless steel wire having a diameter of 0.2 mm (M T Giken) was embedded in the hole (refer to FIG. 1). A screw electrode was embedded in the root of nose as a Z electrode, and a screw electrode was embedded in the cerebellum as an indifferent electrode. Each electrode was connected to a connector socket (Hirose Electric Co. Ltd.), and fixed to the skull with dental cement (Uni Fast II, GC Dental Products).
The rats placed in the multi-gas concentration control apparatus adjusted to a concentration of carbon dioxide of 5% (v/v), 7% (v/v), or 10% (v/v) were subjected to simultaneous video-electroencephalographic recording. Rats placed in the air were used as a control.
Electroencephalograms of the frontal lobe cortex and the occipital lobe cortex of the rats were measured using an electroencephalograph (Neurofax EEG-1200, NIHON KOHDEN CORPORATION). A spike index was used as an index of evaluation of a seizure. The spike index represents a ratio of duration of a spike in measurement time (15 minutes). The spike means a waveform indicating a sharp change in potential in a short time (refer to FIG. 3).
Carbon dioxide was administered to rats by placing the rats in the multi-gas concentration control apparatus adjusted to a concentration of carbon dioxide of 10% (v/v) (9 rats).
By placing the rats in the multi-gas concentration control apparatus, the rats were administered with 10% (v/v) carbon dioxide, and subjected to simultaneous video-electroencephalographic recording every 15 minutes for one hour, and an effect of suppressing an epileptic seizure (spike index) was measured before and after the administration of carbon dioxide.
Next, electroencephalograms were measured.

8-11 days-old rats = conditions: rats in a chamber containing 5% carbon dioxide; cited from earlier work
[5] = Blood pH of Kyo811 rats after febrile seizures and carbon dioxide; format: in vivo, rat; conditions: Kyo811 rats after febrile seizures, carbon dioxide 10% (v/v)
Method: Immediately after the seizure was induced, the rats were placed in the multi-gas concentration control apparatus adjusted to the concentration of carbon dioxide of 10% (v/v) or the concentration of the normal air, and the situation of the seizure was observed while electroencephalograms were measured continuously.
As a control, the blood pH of the rats (10 rats) before induction of febrile seizures was measured. As a result, it was confirmed that the increase in the concentration of carbon dioxide to 10% (v/v) reduced the blood pH of the rats (FIG. 14).

[6] = Blood concentration, blood pH and blood bicarbonate ion after acetazolamide in GRY rats
[7] = 10% (v/v) carbon dioxide for 15 to 60 minutes
[8] = carbon dioxide 5% (v/v), 7% (v/v) or 10% (v/v), one hour
[9] = 50 mg/kg intraperitoneally, 15, 30, 45 and 60 minutes after the administration, saline control
[10] = concentration of oxygen 17% (v/v), one hour

blood concentration of carbon dioxide [3, 7]: increased
blood concentration of carbon dioxide [3, 8]: increased
SMILES: O=C=O [carbon dioxide]
effect of carbon dioxide gas in the air ([1]; concentration of 1 to 2% (v/v)): causes discomfort
effect of carbon dioxide gas in the air ([1]; concentration of 3 to 4% (v/v)): stimulates the respiratory center
effect of carbon dioxide gas in the air ([1]; concentration of 6 to 7% (v/v)): makes breathing difficult
effect of carbon dioxide gas in the air ([1]; concentration of 7 to 10% (v/v)): causes unconsciousness in a few minutes
epileptiform discharges, duration of a spike [2]: suppressed significantly
seizure duration (second) [2]: suppressed significantly
blood pH [3, 7]: reduced
blood pH [3, 8]: reduced
blood pH ([3]; environment of 10% (v/v) carbon dioxide): 7.27
time the effect of suppressing a seizure lasts after the administration ([4]; 10% (v/v) carbon dioxide): ≥ 30 min
average spike index (spike index for 15 minutes before administration assumed to be 1) ([4]; 10% (v/v) carbon dioxide, 0-15 minutes): 0.0074
average spike index (spike index for 15 minutes before administration assumed to be 1) ([4]; 10% (v/v) carbon dioxide, 16-30 minutes): 0.054
average spike index (spike index for 15 minutes before administration assumed to be 1) ([4]; 10% (v/v) carbon dioxide, 31-45 minutes): 0.275
average spike index (spike index for 15 minutes before administration assumed to be 1) ([4]; 10% (v/v) carbon dioxide, 46-60 minutes): 0.416
effect of suppressing a seizure ([4]; 10% (v/v) carbon dioxide, 15 minutes after the administration): suppress a seizure almost completely
epileptiform discharges, duration of a spike ([4]; 10% (v/v) carbon dioxide, five minutes from 25 seconds after starting vs five minutes before administration): suppressed significantly
epileptiform discharges, duration of a spike ([4]; carbon dioxide 7% (v/v) or 10% (v/v), control rats in the air): suppressed significantly
alkalosis in the brain (8-11 days-old rats): can be suppressed
blood pH [5]: reduced

time after administration of highest blood concentration of acetazolamide ([6]; 50 mg/kg intraperitoneally): 15 min
blood pH ([6]; 30 minutes after the administration of 50 mg/kg): 7.08±0.03
SMILES: CC(=O)Nc1nnc(S(N)(=O)=O)s1 [acetazolamide, Acetazolamide]
blood bicarbonate ion as compared with the control group [6, 9]: significantly low
blood pH as compared with the control group [6, 9]: significantly low
spike duration of a seizure ([4]; acetazolamide 50 mg/kg intraperitoneally, vs non-administration group): significantly suppresses

SMILES: O=O [oxygen, reference compound]
blood concentration of carbon dioxide [3, 10]: reduced
blood pH [3, 10]: increased
